According to publication PMC5479551, “Development of a range of fluorescent reagentless biosensors for ATP, based on malonyl-coenzyme A synthetase” (PLoS ONE, 2017):
Where “and” joins values, the source holds several entries; their conditions need not be identical. Equal entries are not always repeated.

Key:
Parent (Rho-MatB) [1] = biological target: T1, Parent (Rho-MatB) (Rhodopseudomonas palustris, UniProt Q6ND88, C106A/K488A/Q457C/R286C); test: Competition fluorescence titration of ATP into 0.5 µM parent Rho-MatB at fixed AMP (500 or 1000 µM) in 50 mM Hepes pH 7.0, 100 mM NaCl, 10 mM MgCl2, 0.3 mg/ml BSA, 20°C.; assay type: binding; settings: read-out: KAMP (ATP titrated at fixed AMP)
T1 construct: N-terminal His6-tag, expressed in E. coli; two tetramethylrhodamines (5-IATR) on introduced cysteines
Protocol: Fig 6 Competition titrations between ATP and AMP binding to Rho-MatB variants. Titrations were under conditions as Fig 2, using 0.5 μM of the Rho-MatB variant. (A) Titration of AMP into Rho-MatB complex with a fixed concentration of ATP: 7 μM for the parent Rho-MatB (“wt”) and S170A, 50 μM for T303A and 150 μM for T167A. One representative data set is shown. Fluorescence changes were fit to A0[ATP]/(K' +[ATP]), where the apparent dissociation constant for ATP, K' = KATP(1 + [AMP]/KAMP). KATP and KAMP are the actual dissociation constants for ATP and AMP and A0 is the total fluorescence change at that ATP concentration. Taking the previously obtained values for KATP, the values of KAMP were 169 ± 23 μM for the parent Rho-MatB, 225 ± 15 μM for S170A, and 300 ± 12 μM for T167A. […] Data were fitted to the equation above, giving KAMP as 233 ± 11 μM using 500 μM AMP and 255 ± 16 μM at 1000 μM AMP.
Doing the competition titration the other way round, fixing AMP, caused a shift in apparent dissociation constant of ATP. […] Alternatively, fitting the data as described in Fig 6 gave values for the AMP dissociation constant that were similar to those in Fig 6A. The amplitude of the signal changes only little with AMP, but the range of ATP concentrations over the maximal signal change, is increased as AMP increases

H207A Rho-MatB = biological target: T2, H207A Rho-MatB (Rhodopseudomonas palustris, UniProt Q6ND88, C106A/H207A/K488A/Q457C/R286C); test: Survey fluorescence titration of tetramethylrhodamine-labelled MatB variants with ATP in 50 mM Tris.HCl pH 7.5, 150 mM NaCl, 10 mM MgCl2, 0.3 mg/ml BSA, 20°C, without full optimization of labelling and purification.; assay type: binding
T2 construct: His6-tag, Rho-MatB background, two tetramethylrhodamines (5-IATR)
Protocol: (§1) Data from titrations to measure nucleotide binding were corrected for dilution and analyzed with a quadratic binding curve using Grafit software: F=Fmin+(Fmax−Fmin)×(Kd+L+P−(Kd+L+P)^2−4×P×L)/2×P where P and L are the total concentrations of protein and ligand, respectively, Kd is the dissociation constant, and Fmin and Fmax are the fluorescence intensities of the free and ligand- bound protein, respectively.
(§2) The labeled proteins were then tested for a fluorescence change upon ATP binding in the presence of Mg^2+ (Table 1). For variants showing a significant fluorescence change, the affinity for ATP was determined by titration (Table 1).

M302A Rho-MatB = biological target: T3, M302A Rho-MatB (Rhodopseudomonas palustris, UniProt Q6ND88, C106A/K488A/M302A/Q457C/R286C); test: as above; assay type: binding
T3 construct: His6-tag, Rho-MatB background, two tetramethylrhodamines (5-IATR)
Protocol: as §1, §2

Parent (Rho-MatB) [2] = biological target: T1, Parent (Rho-MatB); test: as above; assay type: binding
Protocol: as §1, §2

Q490A Rho-MatB = biological target: T4, Q490A Rho-MatB (Rhodopseudomonas palustris, UniProt Q6ND88, C106A/K488A/Q457C/Q490A/R286C); test: as above; assay type: binding
T4 construct: His6-tag, Rho-MatB background, two tetramethylrhodamines (5-IATR)
Protocol: as §1, §2

R169A Rho-MatB = biological target: T5, R169A Rho-MatB (Rhodopseudomonas palustris, UniProt Q6ND88, C106A/K488A/Q457C/R169A/R286C); test: as above; assay type: binding
T5 construct: His6-tag, Rho-MatB background, two tetramethylrhodamines (5-IATR)
Protocol: as §1, §2

R299A Rho-MatB = biological target: T6, R299A Rho-MatB (Rhodopseudomonas palustris, UniProt Q6ND88, C106A/K488A/Q457C/R286C/R299A); test: as above; assay type: binding
T6 construct: His6-tag, Rho-MatB background, two tetramethylrhodamines (5-IATR)
Protocol: as §1, §2

S164A Rho-MatB = biological target: T7, S164A Rho-MatB (Rhodopseudomonas palustris, UniProt Q6ND88, C106A/K488A/Q457C/R286C/S164A); test: as above; assay type: binding
T7 construct: His6-tag, Rho-MatB background, two tetramethylrhodamines (5-IATR)
Protocol: as §1, §2

S170A Rho-MatB [3] = biological target: T8, S170A Rho-MatB (Rhodopseudomonas palustris, UniProt Q6ND88, C106A/K488A/Q457C/R286C/S170A); test: as above; assay type: binding
T8 construct: His6-tag, Rho-MatB background, two tetramethylrhodamines (5-IATR)
Protocol: as §1, §2

T163A Rho-MatB = biological target: T9, T163A Rho-MatB (Rhodopseudomonas palustris, UniProt Q6ND88, C106A/K488A/Q457C/R286C/T163A); test: as above; assay type: binding
T9 construct: His6-tag, Rho-MatB background, two tetramethylrhodamines (5-IATR)
Protocol: as §1, §2

T166A Rho-MatB = biological target: T10, T166A Rho-MatB (Rhodopseudomonas palustris, UniProt Q6ND88, C106A/K488A/Q457C/R286C/T166A); test: as above; assay type: binding
T10 construct: His6-tag, Rho-MatB background, two tetramethylrhodamines (5-IATR)
Protocol: as §1, §2

T167A Rho-MatB [4] = biological target: T11, T167A Rho-MatB (Rhodopseudomonas palustris, UniProt Q6ND88, C106A/K488A/Q457C/R286C/T167A); test: as above; assay type: binding
T11 construct: His6-tag, Rho-MatB background, two tetramethylrhodamines (5-IATR)
Protocol: as §1, §2

T167S Rho-MatB = biological target: T12, T167S Rho-MatB (Rhodopseudomonas palustris, UniProt Q6ND88, C106A/K488A/Q457C/R286C/T167S); test: as above; assay type: binding
T12 construct: His6-tag, Rho-MatB background, two tetramethylrhodamines (5-IATR)
Protocol: as §1, §2

T208A Rho-MatB = biological target: T13, T208A Rho-MatB (Rhodopseudomonas palustris, UniProt Q6ND88, C106A/K488A/Q457C/R286C/T208A); test: as above; assay type: binding
T13 construct: His6-tag, Rho-MatB background, two tetramethylrhodamines (5-IATR)
Protocol: as §1, §2

T303A Rho-MatB [5] = biological target: T14, T303A Rho-MatB (Rhodopseudomonas palustris, UniProt Q6ND88, C106A/K488A/Q457C/R286C/T303A); test: as above; assay type: binding
T14 construct: His6-tag, Rho-MatB background, two tetramethylrhodamines (5-IATR)
Protocol: as §1, §2

T303S Rho-MatB = biological target: T15, T303S Rho-MatB (Rhodopseudomonas palustris, UniProt Q6ND88, C106A/K488A/Q457C/R286C/T303S); test: as above; assay type: binding
T15 construct: His6-tag, Rho-MatB background, two tetramethylrhodamines (5-IATR)
Protocol: as §1, §2

Y300A Rho-MatB = biological target: T16, Y300A Rho-MatB (Rhodopseudomonas palustris, UniProt Q6ND88, C106A/K488A/Q457C/R286C/Y300A); test: as above; assay type: binding
T16 construct: His6-tag, Rho-MatB background, two tetramethylrhodamines (5-IATR)
Protocol: as §1, §2

Parent (Rho-MatB) [6] = biological target: T1, Parent (Rho-MatB); test: Fluorescence titration (excitation 553 nm, emission 571 nm) of 0.5 µM fully purified Rho-MatB with ATP in 50 mM Hepes pH 7.0, 100 mM NaCl, 10 mM MgCl2, 0.3 mg/ml BSA, 20°C, quadratic binding fit.
Text: as §1
(§3) Fig 2 Nucleotide affinity for variants of Rho-MatB. Titration of ATP (circles) and ADP (triangles) to (A) 0.5 µM Rho-MatB T167A, (B) 0.5 μM Rho-MatB T303A; (C) 0.5 μM Rho-MatB S170A. Measurements are shown for one representative experiment and were in 50 mM Hepes pH 7.0, 100 mM NaCl, 10 mM MgCl2, 0.3 mg ml^-1 bovine serum albumin at 20°C. Excitation was at 553 nm, emission at 571 nm. The dissociation constants and fluorescence ratios were obtained using a quadratic binding equation (see Methods) and are listed in Table 2. The drop lines are to indicate the dissociation constants. Data are normalized to the intensity in the absence of nucleotide.
(§4) The affinity for ATP and ADP was determined by measuring the fluorescence at different concentrations of the nucleotide (Fig 2A and 2B). Both variants show similar fluorescent changes with ATP compared to the parent Rho-MatB, but the dissociation constants (Kd) are much higher (Table 2). In contrast, the affinity of ADP was much less affected by the mutations, remaining very weak (Table 2). The change in ATP affinity presumably reflects the importance of hydrogen-bonding interactions with the triphosphate, decreased by mutating to alanine.

S170A Rho-MatB [7] = biological target: T8, S170A Rho-MatB; test: as above
Text: as §1, §3, §4

T167A Rho-MatB [8] = biological target: T11, T167A Rho-MatB; test: as above
Text: as §1, §3, §4

T303A Rho-MatB [9] = biological target: T14, T303A Rho-MatB; test: as above
Text: as §1, §3, §4

T1 sequence (Q6ND88 entry or part of it C106A/R286C/Q457C/K488A): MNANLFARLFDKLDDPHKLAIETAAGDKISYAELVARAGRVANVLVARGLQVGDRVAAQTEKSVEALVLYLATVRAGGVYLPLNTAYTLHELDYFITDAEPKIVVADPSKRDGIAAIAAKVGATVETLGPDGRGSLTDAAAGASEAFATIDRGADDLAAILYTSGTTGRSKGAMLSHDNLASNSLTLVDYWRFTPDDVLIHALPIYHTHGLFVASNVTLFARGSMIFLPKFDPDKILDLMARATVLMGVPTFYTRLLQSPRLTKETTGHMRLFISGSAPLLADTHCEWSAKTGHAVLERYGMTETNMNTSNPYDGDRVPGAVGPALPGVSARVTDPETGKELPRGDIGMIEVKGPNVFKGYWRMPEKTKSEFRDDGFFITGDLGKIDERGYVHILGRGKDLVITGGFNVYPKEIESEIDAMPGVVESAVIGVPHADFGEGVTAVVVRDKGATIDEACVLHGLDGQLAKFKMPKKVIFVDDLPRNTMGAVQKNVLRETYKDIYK
T14 sequence (Q6ND88 entry or part of it C106A/R286C/T303A/Q457C/K488A): as the sequence (Q6ND88 entry or part of it C106A/R286C/Q457C/K488A) above, with T303A counted along it
T11 sequence (Q6ND88 entry or part of it C106A/T167A/R286C/Q457C/K488A): as the sequence (Q6ND88 entry or part of it C106A/R286C/Q457C/K488A) above, with T167A counted along it
T8 sequence (Q6ND88 entry or part of it C106A/S170A/R286C/Q457C/K488A): as the sequence (Q6ND88 entry or part of it C106A/R286C/Q457C/K488A) above, with S170A counted along it
T3 sequence (Q6ND88 entry or part of it C106A/R286C/M302A/Q457C/K488A): as the sequence (Q6ND88 entry or part of it C106A/R286C/Q457C/K488A) above, with M302A counted along it
T15 sequence (Q6ND88 entry or part of it C106A/R286C/T303S/Q457C/K488A): as the sequence (Q6ND88 entry or part of it C106A/R286C/Q457C/K488A) above, with T303S counted along it
T10 sequence (Q6ND88 entry or part of it C106A/T166A/R286C/Q457C/K488A): as the sequence (Q6ND88 entry or part of it C106A/R286C/Q457C/K488A) above, with T166A counted along it
T5 sequence (Q6ND88 entry or part of it C106A/R169A/R286C/Q457C/K488A): as the sequence (Q6ND88 entry or part of it C106A/R286C/Q457C/K488A) above, with R169A counted along it
T4 sequence (Q6ND88 entry or part of it C106A/R286C/Q457C/K488A/Q490A): as the sequence (Q6ND88 entry or part of it C106A/R286C/Q457C/K488A) above, with Q490A counted along it
T7 sequence (Q6ND88 entry or part of it C106A/S164A/R286C/Q457C/K488A): as the sequence (Q6ND88 entry or part of it C106A/R286C/Q457C/K488A) above, with S164A counted along it
T2 sequence (Q6ND88 entry or part of it C106A/H207A/R286C/Q457C/K488A): as the sequence (Q6ND88 entry or part of it C106A/R286C/Q457C/K488A) above, with H207A counted along it
T16 sequence (Q6ND88 entry or part of it C106A/R286C/Y300A/Q457C/K488A): as the sequence (Q6ND88 entry or part of it C106A/R286C/Q457C/K488A) above, with Y300A counted along it
T12 sequence (Q6ND88 entry or part of it C106A/T167S/R286C/Q457C/K488A): as the sequence (Q6ND88 entry or part of it C106A/R286C/Q457C/K488A) above, with T167S counted along it
T13 sequence (Q6ND88 entry or part of it C106A/T208A/R286C/Q457C/K488A): as the sequence (Q6ND88 entry or part of it C106A/R286C/Q457C/K488A) above, with T208A counted along it
T6 sequence (Q6ND88 entry or part of it C106A/R286C/R299A/Q457C/K488A): as the sequence (Q6ND88 entry or part of it C106A/R286C/Q457C/K488A) above, with R299A counted along it
T9 sequence (Q6ND88 entry or part of it C106A/T163A/R286C/Q457C/K488A): as the sequence (Q6ND88 entry or part of it C106A/R286C/Q457C/K488A) above, with T163A counted along it

SMILES: Nc1ncnc2c1ncn2[C@@H]1O[C@H](COP(=O)(O)O)[C@@H](O)[C@H]1O [AMP, adenosine 5'-monophosphate]
- Kd (Parent (Rho-MatB) [1]): 233 µM and 255 µM

SMILES: Nc1ncnc2c1ncn2[C@@H]1O[C@H](COP(=O)(O)OP(=O)(O)OP(=O)(O)O)[C@@H](O)[C@H]1O [ATP, adenosine 5'-triphosphate]
- Kd (H207A Rho-MatB): 224 ± 18 µM
- Kd (M302A Rho-MatB): 50 ± 5 µM
- Kd (Parent (Rho-MatB) [2]): 8.8 ± 0.3 µM
- Kd (Q490A Rho-MatB): 66 ± 3 µM
- Kd (R169A Rho-MatB): 33 ± 1 µM
- Kd (R299A Rho-MatB): 2.4 ± 0.1 µM
- Kd (S164A Rho-MatB): 17.4 ± 0.4 µM
- Kd (S170A Rho-MatB [3]): 4 ± 0.1 µM
- Kd (T163A Rho-MatB): 297 ± 27 µM
- Kd (T166A Rho-MatB): 156 ± 7 µM
- Kd (T167A Rho-MatB [4]): 149 ± 7 µM
- Kd (T167S Rho-MatB): 52 ± 1 µM
- Kd (T208A Rho-MatB): 52 ± 5 µM
- Kd (T303A Rho-MatB [5]): 42 ± 1 µM
- Kd (T303S Rho-MatB): 56 ± 3 µM
- Kd (Y300A Rho-MatB): 11.1 ± 0.5 µM
- Kd (Parent (Rho-MatB) [6]): 6.4 ± 0.6 µM
- Kd (S170A Rho-MatB [7]): 3.8 ± 0.1 µM
- Kd (T167A Rho-MatB [8]): 123 ± 4 µM
- Kd (T303A Rho-MatB [9]): 42 ± 2 µM
